{
  "source": "patent US20130012519A1",
  "about": "“Biomarker Identifying the Reactivation of STAT3 After Src Inhibition” (BRISTOL-MYERS SQUIBB COMPANY, priority 2006, published 2013)",
  "key": {"STAT3 [1]": {"tested_on": "STAT3", "test": "Western blot / Bioplex phosphoprotein assay, STAT3 activation (pY705-STAT3) in cancer cell lines", "settings": "for STAT3 inhibition / re-activation: Tu167 cells treated with one of three SFK inhibitors for 24 hours; for STAT3 inhibition on addition of JAK inhibitor to dasatinib: JAK inhibitor added to dasatinib; for effect of added inhibitor on STAT3 reactivation by dasatinib: Tu167 cells treated with dasatinib plus the inhibitor"}, "MAPK [2]": {"tested_on": "MAPK", "test": "Western blot, MAPK activation in HNSCC cells", "settings": "Tu167 cells treated with EGF"}, "AKT": {"tested_on": "AKT", "test": "Western blot, AKT downstream of Src in cancer cell lines", "type": "cell-based, human"}, "[3]": {"tested_on": "head and neck squamous carcinoma and non-small cell lung cancer cell lines", "settings": "cited from earlier work"}, "STAT5": {"tested_on": "STAT5", "test": "Western blot, STAT5 downstream of Src in cancer cell lines", "type": "cell-based, human"}, "STAT3 [4]": {"tested_on": "STAT3", "settings": "panel of NSCLC cell lines with mutant or wild-type EGFR; literature; cited from earlier work"}, "MAPK [5]": {"tested_on": "MAPK", "settings": "HNSCC cells treated with dasatinib; Johnson et al. 2005; cited from earlier work"}, "FAK": {"tested_on": "FAK", "test": "Western blot, FAK downstream of Src in cancer cell lines", "type": "cell-based, human"}, "IGF1R": {"biological_target": "T1, IGF1R (Homo sapiens, UniProt P08069)", "T1 construct": "endogenous in cells", "T1 sequence (P08069 31-1367)": "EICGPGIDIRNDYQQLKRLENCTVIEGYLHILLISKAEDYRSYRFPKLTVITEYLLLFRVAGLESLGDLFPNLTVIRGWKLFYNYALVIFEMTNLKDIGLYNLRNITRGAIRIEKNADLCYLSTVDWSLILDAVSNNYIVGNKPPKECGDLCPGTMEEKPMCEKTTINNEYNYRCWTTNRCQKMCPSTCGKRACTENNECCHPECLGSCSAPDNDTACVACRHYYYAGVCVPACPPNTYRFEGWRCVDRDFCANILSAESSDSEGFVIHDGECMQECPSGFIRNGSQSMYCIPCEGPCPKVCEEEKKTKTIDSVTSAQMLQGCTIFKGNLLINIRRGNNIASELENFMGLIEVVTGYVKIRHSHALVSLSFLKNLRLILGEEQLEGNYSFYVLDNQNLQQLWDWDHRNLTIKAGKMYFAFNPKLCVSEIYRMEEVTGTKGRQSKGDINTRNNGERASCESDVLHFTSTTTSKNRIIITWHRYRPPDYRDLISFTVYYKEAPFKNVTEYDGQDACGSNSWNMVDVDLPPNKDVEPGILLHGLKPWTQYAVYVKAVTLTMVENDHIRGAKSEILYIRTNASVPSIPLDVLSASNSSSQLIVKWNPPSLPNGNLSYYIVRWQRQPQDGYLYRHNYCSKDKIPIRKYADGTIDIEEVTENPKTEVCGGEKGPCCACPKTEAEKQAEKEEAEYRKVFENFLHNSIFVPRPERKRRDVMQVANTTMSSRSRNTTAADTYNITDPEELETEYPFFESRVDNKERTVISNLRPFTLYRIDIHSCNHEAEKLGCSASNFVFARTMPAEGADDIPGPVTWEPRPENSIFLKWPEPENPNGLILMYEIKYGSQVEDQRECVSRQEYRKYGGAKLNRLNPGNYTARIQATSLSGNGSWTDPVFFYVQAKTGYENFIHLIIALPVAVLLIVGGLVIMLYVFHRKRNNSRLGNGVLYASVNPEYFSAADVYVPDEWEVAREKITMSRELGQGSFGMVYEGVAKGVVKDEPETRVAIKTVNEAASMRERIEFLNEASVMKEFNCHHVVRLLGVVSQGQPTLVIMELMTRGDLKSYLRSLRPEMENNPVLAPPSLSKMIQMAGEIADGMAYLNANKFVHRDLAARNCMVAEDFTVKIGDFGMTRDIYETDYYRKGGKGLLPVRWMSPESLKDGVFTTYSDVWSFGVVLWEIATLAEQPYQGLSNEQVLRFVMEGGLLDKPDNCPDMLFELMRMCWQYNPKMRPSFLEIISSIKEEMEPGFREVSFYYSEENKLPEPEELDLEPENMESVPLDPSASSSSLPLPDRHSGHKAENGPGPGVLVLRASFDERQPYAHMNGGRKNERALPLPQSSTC", "test": "IGF1R activation in cells", "type": "cell-based", "settings": "cells treated with dasatinib"}, "IL-8": {"tested_on": "IL-8", "test": "Cytokine profiling of cell media (25-plex bead kit), IL-8", "type": "cell-based, human", "settings": "100 nM dasatinib; serum-free and complete medium; 6 and 24 h"}, "[6]": {"tested_on": "25 human cytokines/chemokines", "test": "Cytokine profiling of cell media (25-plex bead kit), other cytokines", "type": "cell-based", "settings": "100 nM dasatinib; serum-free and complete medium; 6 and 24 h"}, "IL-6": {"tested_on": "IL-6", "test": "Cytokine profiling of cell media (25-plex bead kit), IL-6", "type": "cell-based, human", "settings": "100 nM dasatinib; serum-free and complete medium; 6 and 24 h"}, "c-Src": {"biological_target": "T2, c-Src (Homo sapiens, UniProt P12931)", "T2 construct": "endogenous in cells; host or cells: fifteen human cancer cell lines (HNSCC incl. Tu167, NSCLC, mesothelioma, squamous skin cancer)", "T2 sequence (P12931 whole entry)": "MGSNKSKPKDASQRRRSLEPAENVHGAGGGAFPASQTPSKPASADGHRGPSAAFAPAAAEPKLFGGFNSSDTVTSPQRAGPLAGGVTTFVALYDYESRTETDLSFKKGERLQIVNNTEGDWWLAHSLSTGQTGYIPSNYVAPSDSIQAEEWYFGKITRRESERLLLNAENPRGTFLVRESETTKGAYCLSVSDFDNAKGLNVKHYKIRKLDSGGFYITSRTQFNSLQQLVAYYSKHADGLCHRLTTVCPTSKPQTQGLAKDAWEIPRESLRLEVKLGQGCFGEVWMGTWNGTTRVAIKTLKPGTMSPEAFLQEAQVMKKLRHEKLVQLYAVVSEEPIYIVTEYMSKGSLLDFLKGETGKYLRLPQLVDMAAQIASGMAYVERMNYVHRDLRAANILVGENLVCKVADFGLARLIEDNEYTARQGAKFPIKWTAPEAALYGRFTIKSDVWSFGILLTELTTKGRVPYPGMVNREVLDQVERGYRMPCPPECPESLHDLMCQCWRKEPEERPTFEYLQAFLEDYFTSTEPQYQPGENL", "test": "Western blot, c-Src inhibition in cancer cell lines", "type": "cell-based", "settings": "Tu167 cells treated with one of three SFK inhibitors for 24 hours"}, "wild-type BCR-ABL": {"tested_on": "wild-type BCR-ABL", "settings": "read-out: IC50 against wild-type BCR-ABL; Weisberg et al. 2006; cited from earlier work"}, "[7]": {"tested_on": "imatinib-resistant BCR-ABL mutants", "settings": "number of mutants out of those tested; Weisberg et al. 2006; cited from earlier work"}, "[8]": {"settings": "Tu167 cells, 100 nM dasatinib for the indicated times"}, "[9]": {"settings": "all fifteen human cancer cell lines, 100 nM dasatinib, 0-24 h"}},
  "note": "“Also recorded” adds a separate entry of the source.",
  "data": [
    {"molecule": "EGF: epidermal growth factor, used to stimulate cells (NSDSECPLSHDGYCLHDGVCMYIEALDKYACNCVVGYIGERCQYRDLKWWELR; UniProt P01133 971-1023, looked up)", "values": [
      {"measurement": "STAT3 activation on stimulation", "setting": "STAT3 [1]; Tu167 cells treated with EGF", "result": "slight increase in STAT3 activation"},
      {"measurement": "MAPK activation on stimulation", "setting": "MAPK [2]", "result": "markedly activated"}
    ]},
    {"molecule": "Cc1nc(Nc2ncc(C(=O)Nc3c(C)cccc3Cl)s2)cc(N2CCN(CCO)CC2)n1", "note": "[dasatinib, N-(2-chloro-6-methylphenyl)-2-[[6-[4-(2-hydroxyethyl)-1-piperazinyl]-2-methyl-4-pyrimidinyl]amino]-5-thiazolecarboxamide]", "values": [
      {"measurement": "AKT inhibition", "setting": "AKT; [8]", "result": "durable inhibition"},
      {"measurement": "AKT inhibition", "setting": "AKT; [9]", "result": "rapidly and durably inhibited"},
      {"measurement": "effects in cancer cell lines", "setting": "[3]", "result": "cytotoxicity, cell cycle arrest and apoptosis"},
      {"measurement": "STATS inhibition", "setting": "STAT5; [8]", "result": "durable inhibition"},
      {"measurement": "STATS inhibition", "setting": "STAT5; [9]", "result": "rapidly and durably inhibited"},
      {"measurement": "STAT3 activation (pSTAT3)", "setting": "STAT3 [1]; 14 of 15 solid tumor cell lines (HNSCC, NSCLC, mesothelioma, squamous skin carcinoma), 100 nM dasatinib, 0-24 h, Western blot", "result": "intitally inhibited but levels of pSTAT3 (Y105) returned to or above baseline by 24 h; also recorded: initially inhibited but reactivated by 24 h"},
      {"measurement": "STAT3 inhibition / re-activation", "setting": "STAT3 [1]; Western blot", "result": "not inhibited at 24 hours"},
      {"measurement": "STAT3 inhibition", "setting": "STAT3 [1]; Tu167 cells, 100 nM dasatinib for the indicated times, Western blot", "result": "not durably inhibited"},
      {"measurement": "STAT3 activation in fresh cells by conditioned medium", "setting": "STAT3 [1]; conditioned medium from Tu167 cells treated with dasatinib for 24 h transferred to fresh cells", "result": "did not observe any STAT3 activation"},
      {"measurement": "effect of SFK inhibition on STAT3 activation", "setting": "STAT3 [4]", "result": "modest to absent"},
      {"measurement": "MAPK activation", "setting": "MAPK [5]", "result": "transiently activated"},
      {"measurement": "FAK inhibition", "setting": "FAK; [8]", "result": "durable inhibition"},
      {"measurement": "FAK inhibition", "setting": "FAK; [9]", "result": "rapidly and durably inhibited"},
      {"measurement": "IGF1R activation", "setting": "IGF1R", "result": "nor did dasatinib affect IGF1R activation"},
      {"measurement": "IL-8 production", "setting": "IL-8", "result": "decreased"},
      {"measurement": "increase of any of 25 cytokines / growth factors assayed", "setting": "[6]", "result": "No cytokine or growth factor assayed was significantly increased"},
      {"measurement": "production of IL-1beta, IL-12p40, IL-15, TNF-alpha, interferon-alpha, inducible protein-10, MIG, RANTES, IL-10", "setting": "[6]", "result": "unaffected"},
      {"measurement": "IL-6 production", "setting": "IL-6", "result": "decreased"}
    ]},
    {"molecule": "Cc1ccc(-c2nn(C(C)(C)C)c3ncnc(N)c23)cc1", "note": "[PP1]", "values": [
      {"measurement": "STAT3 inhibition / re-activation", "setting": "STAT3 [1]; Western blot", "result": "not inhibited at 24 hours"},
      {"measurement": "c-Src inhibition", "setting": "c-Src", "result": "durable c-Src inhibition"}
    ]},
    {"molecule": "COc1cc(Nc2c(C#N)cnc3cc(OCCCN4CCN(C)CC4)c(OC)cc23)c(Cl)cc1Cl", "note": "[SKI606]", "values": [
      {"measurement": "STAT3 inhibition / re-activation", "setting": "STAT3 [1]; Western blot", "result": "not inhibited at 24 hours"},
      {"measurement": "c-Src inhibition", "setting": "c-Src", "result": "durable c-Src inhibition"}
    ]},
    {"molecule": "Cc1cn(-c2cc(NC(=O)c3ccc(C)c(Nc4nccc(-c5cccnc5)n4)c3)cc(C(F)(F)F)c2)cn1", "note": "[AMN107]", "values": [
      {"measurement": "IC50", "setting": "wild-type BCR-ABL", "result": "[…]"},
      {"measurement": "imatinib-resistant BCR-ABL mutants against which significantly active", "setting": "[7]", "result": "32/33"}
    ]},
    {"molecule": "CC(C)(C)c1nc2c3cc[nH]c(=O)c3c3cc(F)ccc3c2[nH]1", "note": "[pyridone 6]", "values": [
      {"measurement": "STAT3 inhibition on addition of JAK inhibitor to dasatinib", "setting": "STAT3 [1]", "result": "sustained inhibition of STAT3"}
    ]},
    {"molecule": "N#C/C(=C/c1ccc(O)c(O)c1)C(=O)NCc1ccccc1", "note": "[AG490]", "values": [
      {"measurement": "STAT3 inhibition on addition of JAK inhibitor to dasatinib", "setting": "STAT3 [1]", "result": "sustained inhibition of STAT3"}
    ]},
    {"molecule": "C#Cc1cccc(Nc2ncnc3cc(OCCOC)c(OCCOC)cc23)c1", "note": "[erlotinib]", "values": [
      {"measurement": "effect of added inhibitor on STAT3 reactivation by dasatinib", "setting": "STAT3 [1]", "result": "did not affect the STAT3 reactivation"}
    ]},
    {"molecule": "insulin-like growth factor", "values": [
      {"measurement": "STAT3 activation on stimulation", "setting": "STAT3 [1]; stimulation of cells with insulin-like growth factor", "result": "did not lead to significant activation of STAT3"}
    ]},
    {"molecule": "COc1cccc(-c2cc(=O)c3ccccc3o2)c1N", "note": "[PD98059]", "values": [
      {"measurement": "effect of added inhibitor on STAT3 reactivation by dasatinib", "setting": "STAT3 [1]", "result": "no effect on STAT3 reactivation"}
    ]}
  ]
}
